Assay results taken from the METLIN SMRT retention time set (Domingo-Almenara et al. 2019).

Assay: gradient 5% acetonitrile 3 min, to 50% in 2 min, to 85% in 15 min, held 3 min, 100 µL/min
Conditions: column: Zorbax Extend-C18 2.1 x 50 mm; eluents: water / acetonitrile, 0.1% formic acid
Outline: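 A Zorbax Extend-C18 column (2.1 × 50 mm, 1.8 μm) run at 100 μL/min with water and acetonitrile, both containing 0.1% formic acid, separated mixtures of ~100 pure standards. The HPLC was coupled to a quadrupole time-of-flight mass spectrometer operated in positive and negative ionization mode, with dead and dwell volumes of 40 μL and 900 μL. Each retention time was taken from a computationally picked adduct peak that was then manually inspected.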

Structure (SMILES) | RP-LC retention time
CCS(=O)(=O)N1CCOc2ccc(NC(=O)COC)cc2C1 | 654 s
COc1ccc(NC(=O)CN2C(=O)c3ccccc3C2=O)c2ccccc12 | 782 s
CC(C)NC(=O)c1ccc(OCC2CCN(C(=O)c3c(F)cccc3Cl)CC2)cc1 | 888 s
CCNc1cc(C)nc(N2CCN(C(=O)C(C)C)CC2)n1 | 598 s
Cc1cccc(CNC(=O)C2CCCN(c3ccc4cc(S(=O)(=O)N5CCCC5)ccc4n3)C2)c1 (stereo not drawn) | 774 s
Cn1c(C(=O)NCc2ccccn2)cc2c(=O)oc3ccccc3c21 | 607 s
Cc1cc(C)cc(NC(=O)N2CCCC2c2nc(-c3ccccc3C)no2)c1 (stereo not drawn) | 1110 s
COc1ccc(N2CCN(C(=O)c3ccc(S(=O)(=O)N4CCCC4)cc3)CC2)nn1 | 579 s
CN(C)S(=O)(=O)c1ccc2c(c1)N(CC(=O)Nc1ccccn1)C(=O)C1CCCCN21 (stereo not drawn) | 795 s
O=C(Nc1cccc(Cl)c1)C1CCCN1S(=O)(=O)c1cccc2nsnc12 (stereo not drawn) | 949 s
CCn1cnc(S(=O)(=O)N2CCCC(C(=O)Nc3ccc(Br)c(C)c3)C2)c1 (stereo not drawn) | 889 s
O=c1c2cc(-c3cccs3)nn2ccn1CC(O)c1cccc(Cl)c1 (stereo not drawn) | 924 s
O=C(NCc1ccccc1F)C1CCCN(c2nnc3c(Cl)cccn23)C1 (stereo not drawn) | 710 s
O=C(Cn1cccc1-c1nnc(C2CCC2)o1)NCc1ccc(Cl)cc1 | 907 s
Cc1noc(C)c1-c1ccc(S(=O)(=O)N2CCN(c3ccccn3)CC2)cc1 | 676 s
CC(=O)Nc1nsc(N2CCC(C(=O)NCc3ccc(F)cc3Cl)CC2)n1 | 863 s
CC(C)NCCCn1c(Sc2cc3c(cc2I)OCO3)nc2c(N)ncnc21 | 592 s
O=C(Nc1cc(-c2cccc(F)c2)no1)C1CCCN(c2ncnc3c2nc2n3CCCCC2)C1 (stereo not drawn) | 991 s
O=C(Cc1csc(SCC(=O)c2ccccc2)n1)Nc1cccc2nsnc12 | 981 s
CC1CCN(C(=O)c2nnc(-c3ccc(S(=O)(=O)N4CCOCC4)cc3)o2)CC1 | 866 s
O=C(Nc1nnc(C2CC(=O)N(c3ccccc3)C2)o1)c1ccccc1Br (stereo not drawn) | 709 s
Cc1ccn2cc(-c3ccc(NS(=O)(=O)c4ccc(-c5csc(C)n5)s4)cc3)nc2n1 | 679 s

Structure (SMILES) | RP-LC retention time
O=C(NC1CCCCC1N1C(=O)CSC1=O)c1ccc[nH]c1=O (stereo not drawn) | 606 s
CCCC(=O)Nc1nc(-c2ccc3c(c2)NC(=O)CO3)cs1 | 728 s
COc1ccc(C)cc1N(C)C(=O)C1CCCN(c2ncnc3c2nc2n3CCCCC2)C1 (stereo not drawn) | 869 s
O=C(C1CCC1)N1CCCC(CN2CCOCC2)CC1 (stereo not drawn) | 574 s
COc1ccc2c(CCNC(=O)C(C)C)c[nH]c2c1 | 706 s
Cc1cc(Nc2cc(CN3CCOCC3)c3nc(C)c(Cc4ccc(Cl)cc4F)n3n2)n[nH]1 | 712 s
O=C(N[C@H]1C[C@@H]2C[C@H]1N(C(=O)c1cccc(C(F)(F)F)c1)C2)c1cccs1 | 839 s
CSc1ncccc1C(=O)N1CCCn2nc(-c3cccc(Cl)c3)cc2C1 | 827 s
CCc1ccccc1NC(=O)N(C)CCc1noc(COc2ccccc2F)n1 | 907 s
Cc1nn(-c2ccc(N3CCOCC3)nn2)c(C)c1CCC(=O)Nc1ccccc1F | 709 s
Clc1ccc(-c2nc(-c3ccc(-n4ccnc4)nc3)no2)cc1 | 797 s
CCOc1cc(C2C(C(=O)N3CCCCC3)=C(C)NC3=C2C(=O)CCC3)ccc1OC(C)=O (stereo not drawn) | 710 s
Cc1ccc(CNC(=O)C2CCN(c3cnc(N4CCCC4)nc3)CC2)cc1C | 716 s
COc1ccc(NC(=O)Cc2csc3nc(-c4cccc(Cl)c4)cn23)cc1OC | 831 s
c1ccc2c(Oc3nc(Nc4ccc(N5CCOCC5)cc4)c4ncn(C5CCCCC5)c4n3)cccc2c1 | 1180 s
Cc1ccccc1-c1noc(-c2cccn(CC(=O)NCC3CCCO3)c2=O)n1 (stereo not drawn) | 729 s
Cc1ccc(Nc2nc(C)cc(N3CCN(C(=O)Nc4cccc(C)c4)CC3)n2)cc1 | 717 s
CCCc1cc(N2CCN(C(=O)c3ccn(CC)n3)CC2)nc2nnc(CC)n12 | 616 s
Cn1c(N2CCCC(C(=O)N3CCN(c4ccccn4)CC3)C2)cc(=O)n(C)c1=O (stereo not drawn) | 578 s
CN1Cc2ccccc2-n2ccnc2C12CCN(C(=O)c1cccc(F)c1)CC2 | 614 s
CCc1ccccc1NC(=O)N1CCC2(CC1)NC(=O)c1cc(F)ccc1N2C | 791 s
CCn1cnc(S(=O)(=O)N2CCCC(C(=O)Nc3ccc(C)cc3Cl)C2)c1 (stereo not drawn) | 809 s

Structure (SMILES) | RP-LC retention time
CCOC(=O)c1nc(Nc2ccc(F)cc2F)c2ccccc2n1 | 845 s
Fc1ccc(-c2ccnc3nc(-c4ccccc4)nn23)cc1 | 949 s
Cn1nc(-c2nc(C3CC3)no2)c2c1CCN(S(=O)(=O)c1cccs1)C2 | 861 s
CCc1sc(NC(=O)CCSc2ccccc2)nc1-c1ccccc1 | 1210 s
COC(=O)C(C)NC(=O)NCc1cccn1Cc1cccc(F)c1 (stereo not drawn) | 792 s
COc1cccc(CN2N=C(C(=O)N3CCCC3)S(=O)(=O)c3ccccc32)c1 | 843 s
Cc1ccc(-n2c(N3CCCC(C(=O)NC(C)c4ccc(F)cc4)C3)nc3ccsc3c2=O)cc1 (stereo not drawn) | 959 s
CCOc1ccc(CC(=O)NC(CC(C)C)C(=O)Nc2nc3ccccc3[nH]2)cc1OCC (stereo not drawn) | 758 s
Cc1cc2nc(C(=O)OC(C)C)c(N3CCN(c4ccccn4)CC3)nc2cc1C | 791 s
CC(C)Cc1ccc(S(=O)(=O)N2CCC3(CC2)c2nccn2CCN3C)cc1 | 777 s
CCN(CC)C(=O)c1ccc2oc(CN3CCN(C(=O)NC(C)(C)C)CC3)nc2c1 | 628 s
COc1cc(NC(=O)CSc2ccc(N3CCOCC3)nn2)cc(OC)c1 | 682 s
Cc1noc(C)c1CNC(=O)c1ccc2c(c1)OCO2 | 683 s
O=C1COc2ccc(S(=O)(=O)N3CCC(C(=O)Nc4ccc(C(F)(F)F)cc4)CC3)cc2N1 | 803 s
Cc1csc(-c2cc(S(=O)(=O)N3CCOCC3)cn2CC(=O)N2CCCC2)n1 | 770 s
COc1cccc2c1OC1(C)CC2NC(=O)N1c1cccc(C(=O)N2CCN(c3ccccn3)CC2)c1 (stereo not drawn) | 588 s
CCC(C)NC(=O)CS(=O)Cc1cnn(-c2ccccc2)c1-n1cccc1 (stereo not drawn) | 756 s
Cc1cccc(-c2noc(C3CCCN3C(=O)NCC3CCCO3)n2)c1 (stereo not drawn) | 818 s
Cc1ccc(C2Cn3cnc(C(=O)N4CCC(C(=O)NCCCc5ccccc5)CC4)c3CO2)cc1 (stereo not drawn) | 853 s
O=C(NCCc1ccncc1)C1CCc2sc(C(=O)N3CCCC3)cc2C1 (stereo not drawn) | 506 s
Cc1ccc(Nc2nc(-c3ccc(C(C)C)cc3)cs2)nc1 | 1130 s
CCC(=O)Nc1ccc2nc(N3CCN(CC(=O)Nc4c(C)cccc4C)CC3)cc(C(=O)O)c2c1 | 594 s

Structure (SMILES) | RP-LC retention time
COCCc1noc(COC2CCCN(C(=O)c3ccoc3)C2)n1 (stereo not drawn) | 668 s
CCCS(=O)(=O)N1CCCc2cc(NC(=O)Nc3cccc(OC)c3OC)ccc21 | 908 s
COc1ccc(-c2[nH]ncc2CN2CC(F)(F)C[C@H]2CN2CCOCC2)cc1 | 590 s
CCOC(=O)C1CCC(CNC(=O)Nc2cccc(-c3nnc(-c4ccccc4)o3)c2)CC1 (stereo not drawn) | 975 s
COc1ccc(NC(=O)CN2CCc3[nH]c4c(C)ccc(C)c4c(=O)c3C2)cc1OC | 614 s
O=C(c1cc2ccccc2oc1=O)N1CCCC(c2nnc(-c3ccccc3)o2)C1 (stereo not drawn) | 793 s
COc1cccc(C(=O)NCc2ccc3[nH]c4c(c3c2)CCCC4)c1OC | 910 s
Cc1c(Cl)cccc1NC(=O)C(C)C1CCN(C(=O)Nc2ccc(F)cc2)CC1 (stereo not drawn) | 904 s
COc1ccccc1CC(=O)Nc1cnc(C)nc1 | 664 s
COCCn1c(C2CCN(S(=O)(=O)c3ccc(Cl)cc3)C2)nc2cccnc21 (stereo not drawn) | 806 s
Cc1ccc(NC(=O)NCC2(N3CCOCC3)CCOC2)c(C)c1 (stereo not drawn) | 597 s
COc1ccc(Cl)cc1CC1C(=O)Nc2ccccc21 (stereo not drawn) | 921 s
CC(C)c1ccc(S(=O)(=O)N(CC(=O)N2CCNCC2)CC(C)c2ccccc2)cc1 (stereo not drawn) | 772 s
CCN1C(=O)CCc2cc(NC(=O)Cc3ccccc3Cl)ccc21 | 795 s
O=C(Cn1ccc2c(SCc3ccc(F)cc3)nccc21)N1CCN(c2ccccn2)CC1 | 595 s
CCOC(=O)C(C)Sc1nnc(NC(=O)c2cccc([N+](=O)[O-])c2C)s1 (stereo not drawn) | 859 s
Cn1cc(-c2cc3n(n2)CCC(=O)N3CC(=O)NC2CCCc3ccccc32)c2ccccc21 (stereo not drawn) | 882 s
COc1ccccc1OC(C)C(=O)N1CCN(c2nc(CN3CCOCC3)cs2)CC1 (stereo not drawn) | 621 s
Cc1ccc(CNC(=O)c2ccc(CN3CCN(C(C)C)C(=O)C3=O)cc2)cc1C | 763 s
CCCCCCCCCCNCCSSCc1ccc(Cl)cc1 | 1120 s
CCOc1ccc(CNc2ccc3[nH]c(=O)[nH]c3c2)cc1 | 605 s
CCn1cc(S(=O)(=O)N2C[C@@H](C(N)=O)[C@H](c3n[nH]c(C)n3)C2)cn1 | 576 s
